Reference: patent publication US12157746B2, “Tetrahydro-1H-pyrazino[2,1-a]isoindolylquinoline compounds for the treatment of autoimmune disease” (F. HOFFMANN-LA ROCHE AG, priority 2018, dated 2024)

The compounds below were run against T1, human TLR7 (Homo sapiens, UniProt Q9NYK1) (assay: HEK293-Blue-hTLR-7 cells assay). Conditions: HEK293-Blue-hTLR7 cells, R848 stimulation, 20 hrs, SEAP reporter; read-out: HEK/hTLR7 IC50.
T1 sequence (Q9NYK1 27-1049): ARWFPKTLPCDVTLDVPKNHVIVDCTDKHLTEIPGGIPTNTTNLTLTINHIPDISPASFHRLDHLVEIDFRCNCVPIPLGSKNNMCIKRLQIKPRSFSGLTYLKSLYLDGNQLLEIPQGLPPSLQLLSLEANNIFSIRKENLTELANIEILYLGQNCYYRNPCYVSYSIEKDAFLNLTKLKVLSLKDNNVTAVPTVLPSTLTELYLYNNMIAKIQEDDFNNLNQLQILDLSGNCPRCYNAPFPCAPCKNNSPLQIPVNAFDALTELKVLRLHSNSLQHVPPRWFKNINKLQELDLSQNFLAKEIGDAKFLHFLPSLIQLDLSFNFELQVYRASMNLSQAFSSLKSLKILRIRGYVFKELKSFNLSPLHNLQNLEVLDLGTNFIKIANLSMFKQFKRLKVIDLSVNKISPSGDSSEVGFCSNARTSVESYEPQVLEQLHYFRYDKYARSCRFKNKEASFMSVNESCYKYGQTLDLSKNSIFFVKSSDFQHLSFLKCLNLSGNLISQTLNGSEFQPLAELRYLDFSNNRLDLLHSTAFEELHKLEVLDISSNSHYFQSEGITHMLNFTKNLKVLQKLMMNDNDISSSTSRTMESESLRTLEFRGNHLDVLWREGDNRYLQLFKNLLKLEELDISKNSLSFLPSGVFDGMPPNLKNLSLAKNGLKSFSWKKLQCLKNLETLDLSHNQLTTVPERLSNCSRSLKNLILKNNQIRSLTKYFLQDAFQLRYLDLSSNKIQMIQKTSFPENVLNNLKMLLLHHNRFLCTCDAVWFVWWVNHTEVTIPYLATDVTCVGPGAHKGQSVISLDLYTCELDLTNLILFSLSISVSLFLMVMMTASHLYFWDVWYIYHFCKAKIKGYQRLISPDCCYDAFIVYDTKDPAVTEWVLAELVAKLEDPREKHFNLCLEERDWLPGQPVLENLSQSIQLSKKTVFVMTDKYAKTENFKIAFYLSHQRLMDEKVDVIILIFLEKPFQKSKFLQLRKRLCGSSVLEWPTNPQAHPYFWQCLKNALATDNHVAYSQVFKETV
Assay type: cell-based
Summary of the method: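 HEK293-Blue-hTLR7 cells (NF-κB/AP-1-driven SEAP reporter) incubated with serially diluted compound (1% DMSO final) and R848 agonist for 20 h at 37 °C. Supernatant SEAP measured with QUANTI-Blue (2 h, 37 °C) by absorbance at 620-655 nm; antagonism seen as reduced reporter.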

Compound | IC50 [nM]
C[C@@H]1CN(c2ccc(C#N)c3ncccc23)C[C@@H]2c3ccc(N[C@H]4CNC[C@@H]4F)cc3CN12 [Example 31, 5-[(4R,10bS)-8-[[(3S,4S)-4-fluoropyrrolidin-3-yl]amino]-4-methyl-3,4,6,10b-tetrahydro-1H-pyrazino[2,1-a]isoindol-2-yl]quinoline-8-carbonitrile] | 4.1
C[C@@H]1CN(c2ccc(C#N)c3ncccc23)C[C@@H]2c3ccc(N4C[C@H]5NCCO[C@@H]5C4)cc3CN12 [Example 44, 5-[(4R,10bS)-4-methyl-8-[(4aR,7aR)-3,4,4a,5,7,7a-hexahydro-2H-pyrrolo[3,4-b][1,4]oxazin-6-yl]-3,4,6,10b-tetrahydro-1H-pyrazino[2,1-a]isoindol-2-yl]quinoline-8-carbonitrile] | 19.1
C[C@@H]1CN(c2ccc(C#N)c3ncccc23)C[C@@H]2c3ccc(N4CCC(N)(CO)C4)cc3CN12 (stereo partly drawn) [Example 19, 5-[(4R,10bS)-8-[3-amino-3-(hydroxymethyl)pyrrolidin-1-yl]-4-methyl-3,4,6,10b-tetrahydro-1H-pyrazino[2,1-a]isoindol-2-yl]quinoline-8-carbonitrile] | 3.6
C[C@@H]1CN(c2ccc(C#N)c3ncccc23)C[C@@H]2c3ccc(N4CCOC[C@@H](N)C4)cc3CN12 [Example 54B, 5-[(4R,10bS)-8-[(6S)-6-amino-1,4-oxazepan-4-yl]-4-methyl-3,4,6,10b-tetrahydro-1H-pyrazino[2,1-a]isoindol-2-yl]quinoline-8-carbonitrile] | 5.7
C[C@@H]1CN(c2ccc(C#N)c3ncccc23)C[C@@H]2c3ccc(N4CCOC5(CNC5)C4)cc3CN12 [Example 24, 5-[(4R,10bS)-4-methyl-8-(5-oxa-2,8-diazaspiro[3.5]nonan-8-yl)-3,4,6,10b-tetrahydro-1H-pyrazino[2,1-a]isoindol-2-yl]quinoline-8-carbonitrile] | 3.4
CO[C@@H]1CNC[C@H]1Nc1ccc2c(c1)CN1[C@H](C)CN(c3ccc(C#N)c4ncccc34)C[C@H]21 [Example 34, 5-[(4R,10bS)-8-[[(3R,4R)-4-methoxypyrrolidin-3-yl]amino]-4-methyl-3,4,6,10b-tetrahydro-1H-pyrazino[2,1-a]isoindol-2-yl]quinoline-8-carbonitrile] | 7.4
C[C@@H]1CN(c2ccc(C#N)n3nccc23)C[C@@H]2c3ccc(N4CCOC[C@H](N)C4)cc3CN12 [Example 101, 4-[(4R,10bS)-8-[(6R)-6-amino-1,4-oxazepan-4-yl]-4-methyl-3,4,6,10b-tetrahydro-1H-pyrazino[2,1-a]isoindol-2-yl]pyrazolo[1,5-a]pyridine-7-carbonitrile] | 26.4
C[C@@H]1CN(c2ccc(C#N)c3ncccc23)C[C@@H]2c3ccc(N[C@H]4CNC[C@H]4F)cc3CN12 [Example 30, 5-[(4R,10bS)-8-[[(3S,4R)-4-fluoropyrrolidin-3-yl]amino]-4-methyl-3,4,6,10b-tetrahydro-1H-pyrazino[2,1-a]isoindol-2-yl]quinoline-8-carbonitrile] | < 3.2
C[C@@H]1CN(c2ccc(C#N)c3ncccc23)C[C@@H]2c3ccc(N4CCNC[C@@](C)(O)C4)cc3CN12 [Example 55B, 5-[(4R,10bS)-8-[(6R)-6-hydroxy-6-methyl-1,4-diazepan-1-yl]-4-methyl-3,4,6,10b-tetrahydro-1H-pyrazino[2,1-a]isoindol-2-yl]quinoline-8-carbonitrile] | 16.1
C[C@@H]1CN(c2ccc(C#N)c3ncccc23)C[C@@H]2c3ccc(NCCN(C)C)cc3CN12 [Example 26, 5-[(4R,10bS)-8-[2-(dimethylamino)ethylamino]-4-methyl-3,4,6,10b-tetrahydro-1H-pyrazino[2,1-a]isoindol-2-yl]quinoline-8-carbonitrile] | 5.8
C[C@@H]1CN(c2ccc(C#N)c3ncccc23)C[C@@H]2c3ccc(NC4CNC4)cc3CN12 [Example 28, 5-[(4R,10S)-8-(azetidin-3-ylamino)-4-methyl-3,4,6,10b-tetrahydro-1H-pyrazino[2,1-a]isoindol-2-yl]quinoline-8-carbonitrile] | 15.6
C[C@@H]1CN(c2ccc(C#N)n3nccc23)C[C@@H]2c3ccc(N4C[C@H](N)[C@@H](O)C4)cc3CN12 [Example 111, 4-[(4R,10bS)-8-[(3S,4S)-3-amino-4-hydroxy-pyrrolidin-1-yl]-4-methyl-3,4,6,10b-tetrahydro-1H-pyrazino[2,1-a]isoindol-2-yl]pyrazolo[1,5-a]pyridine-7-carbonitrile] | 14
C[C@@H]1CN(c2ccc(C#N)c3ncccc23)C[C@@H]2c3ccc(N4CCNC[C@H](O)C4)cc3CN12 [Example 53A, 5-[(4R,10bS)-8-[(6S)-6-hydroxy-1,4-diazepan-1-yl]-4-methyl-3,4,6,10b-tetrahydro-1H-pyrazino[2,1-a]isoindol-2-yl]quinoline-8-carbonitrile] | 3.9
C[C@@H]1CN(c2ccc(C#N)c3ncccc23)C[C@@H]2c3ccc(N4CC5(CNCCO5)C4)cc3CN12 [Example 35, 5-[(4R,10bS)-4-methyl-8-(5-oxa-2,8-diazaspiro[3.5]nonan-2-yl)-3,4,6,10b-tetrahydro-1H-pyrazino[2,1-a]isoindol-2-yl]quinoline-8-carbonitrile] | < 3.2
C[C@@H]1CN(c2ccc(C#N)c3nccnc23)C[C@@H]2c3ccc(N4CCNCC4)cc3CN12 [Example 7, 8-[(4R,10bS)-4-methyl-8-piperazin-1-yl-3,4,6,10b-tetrahydro-1H-pyrazino[2,1-a]isoindol-2-yl]quinoxaline-5-carbonitrile] | < 3.2
C[C@@H]1CN(c2ccc3c(c2)CN2[C@H](C)CN(c4ccc(C#N)n5nccc45)C[C@H]32)CCN1 [Example 97, 4-[(4R,10bS)-4-methyl-8-[(3R)-3-methylpiperazin-1-yl]-3,4,6,10b-tetrahydro-1H-pyrazino[2,1-a]isoindol-2-yl]pyrazolo[1,5-a]pyridine-7-carbonitrile] | 5
C[C@@H]1CN(c2ccc(C#N)c3ncccc23)C[C@@H]2c3ccc(N4CC5(CN(C)C5)C4)cc3CN12 [Example 38, 5-[(4R,10bS)-4-methyl-8-(6-methyl-2,6-diazaspiro[3.3]heptan-2-yl)-3,4,6,10b-tetrahydro-1H-pyrazino[2,1-a]isoindol-2-yl]quinoline-8-carbonitrile] | 1.7
C[C@@H]1CN(c2ccc(C#N)c3ncccc23)C[C@@H]2c3ccc(N4CC[C@@H](N)C4)cc3CN12 [Example 20, 5-[(4R,10bS)-8-[(3R)-3-aminopyrrolidin-1-yl]-4-methyl-3,4,6,10b-tetrahydro-1H-pyrazino[2,1-a]isoindol-2-yl]quinoline-8-carbonitrile] | 3.4
CO[C@H]1CCN(c2ccc3c(c2)CN2[C@H](C)CN(c4ccc(C#N)n5nccc45)C[C@H]32)C[C@H]1N [Example 106, 4-[(4R,10bS)-8-[(3R,4S)-3-amino-4-methoxy-1-piperidyl]-4-methyl-3,4,6,10b-tetrahydro-1H-pyrazino[2,1-a]isoindol-2-yl]pyrazolo[1,5-a]pyridine-7-carbonitrile] | 22.6
C[C@@H]1CN(c2ccc(C#N)c3ncccc23)CC2c3ccc(N4C[C@H](N)[C@@H](O)C4)cc3CN21 (relative stereo) [Example 21, 5-[(4R,10bS)-8-[trans-3-amino-4-hydroxy-pyrrolidin-1-yl]-4-methyl-3,4,6,10b-tetrahydro-1H-pyrazino[2,1-a]isoindol-2-yl]quinoline-8-carbonitrile] | 5.8
